Each compound was assayed against T1, P2Y12 receptor (Homo sapiens, UniProt Q9H244) (assay: Functional inhibition of 2-Me-S-ADP induced P2Y12 signalling (35S-GTPγS binding, cell membranes)). Settings: 35S-GTPγS assay, membranes, EC80 concentration of 2-methyl-thio-adenosine diphosphate, 30° C. for 45 min; read-out: GTPγS (IC50 μM).
T1 construct: expressed in transfected cells; host or cells: CHO cells (membrane preparation)
Format: biochemical
Procedure, shortened: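 Membranes (5 μg) from P2Y12-transfected CHO cells in pH 7.4 HEPES buffer with 10 μM GDP and saponin were stimulated with an EC80 of 2-methyl-thio-ADP plus compound and ^35S-GTPγS for 45 min at 30° C. Filter-retained ^35S-GTPγS was counted, normalised between agonist and no-agonist activity, and IC50 taken from a four-parameter fit.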

T1 sequence (Q9H244 whole entry): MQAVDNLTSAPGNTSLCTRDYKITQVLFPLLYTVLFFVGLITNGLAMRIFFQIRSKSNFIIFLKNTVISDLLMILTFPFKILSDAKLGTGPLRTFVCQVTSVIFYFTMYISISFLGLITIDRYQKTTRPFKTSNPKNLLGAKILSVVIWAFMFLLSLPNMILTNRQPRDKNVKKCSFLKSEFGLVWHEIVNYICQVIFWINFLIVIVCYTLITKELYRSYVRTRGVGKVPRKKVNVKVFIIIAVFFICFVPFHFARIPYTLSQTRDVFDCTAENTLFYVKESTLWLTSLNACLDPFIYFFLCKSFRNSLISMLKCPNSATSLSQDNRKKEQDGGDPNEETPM

| IC50 | Compound |
| --- | --- |
| 0.066 µM | CCOC(=O)c1cc(C#N)c(N2CC(C(=O)NS(=O)(=O)Cc3ccccc3)C2)nc1CSCCO [Example 31, Ethyl 6-{3-[(benzylsulfonyl)carbamoyl]azetidin-1-yl}-5-cyano-2-{[(2-hydroxyethyl)thio]methyl}nicotinate] |
| 0.082 µM | CCOC(=O)c1cc(C#N)c(N2CCC(C(=O)NS(=O)(=O)Cc3ccc(C(C)C)cc3)CC2)nc1CN1CCCCC1=O [Example 69, Ethyl 5-cyano-6-(4-{[(4-isopropylbenzyl)sulfonyl]carbamoyl}piperidin-1-yl)-2-[(2-oxopiperidin-1-yl)methyl]nicotinate] |
| 0.072 µM | CCOC(=O)c1cc(C#N)c(N2CCC(C(=O)NS(=O)(=O)Cc3ccccc3)CC2)nc1OCC(N)=O [Example 22, Ethyl 2-(2-amino-2-oxoethoxy)-6-{4-[(benzylsulfonyl)carbamoyl]piperidin-1-yl}-5-cyanonicotinate] |
| 0.106 µM | CCOC(=O)c1cc(C#N)c(N2CC(C(=O)NS(=O)(=O)Cc3ccccc3)C2)nc1CSCC [Example 30, Ethyl 6-{3-[(benzylsulfonyl)carbamoyl]azetidin-1-yl}-5-cyano-2-[(ethylthio)methyl]nicotinate] |
| 0.033 µM | CC(C)OC(=O)c1cc(C#N)c(N2CCC(C(=O)NS(=O)(=O)Cc3ccccc3)CC2)nc1CN1CCCC1=O [Example 34, Isopropyl 6-{4-[(benzylsulfonyl)carbamoyl]piperidin-1-yl}-5-cyano-2-[(2-oxopyrrolidin-1-yl)methyl]nicotinate] |
| 0.014 µM | CCOC(=O)c1cc(C#N)c(N2CCC(C(=O)NS(=O)(=O)Cc3ccc(C)cc3)CC2)nc1CN1CCCCC1=O [Example 63, Ethyl 5-cyano-6-(4-{[(4-methylbenzyl)sulfonyl]carbamoyl}piperidin-1-yl)-2-[(2-oxopiperidin-1-yl)methyl]nicotinate] |
| 0.129 µM | CCOC(=O)c1cc(C#N)c(N2CCC(C(=O)NS(=O)(=O)Cc3ccccc3)CC2)nc1CS(C)(=O)=O [Example 12, Ethyl 6-{4-[(benzylsulfonyl)carbamoyl]piperidin-1-yl}-5-cyano-2-[(methylsulfonyl)methyl]nicotinate] |
| 0.011 µM | CCOC(=O)CSc1nc(N2CCC(C(=O)NS(=O)(=O)Cc3ccccc3)CC2)c(C#N)cc1C(=O)OCC [Example 126, Ethyl 6-{4-[(benzylsulfonyl)carbamoyl]piperidin-1-yl}-5-cyano-2-[(2-ethoxy-2-oxoethyl)thio]nicotinate] |
| 0.102 µM | CC(C)OC(=O)c1cc(C#N)c(N2CCC(C(=O)NS(=O)(=O)Cc3ccccc3)CC2)nc1CN1CCCCC1=O [Example 70, Isopropyl 6-{4-[(benzylsulfonyl)carbamoyl]piperidin-1-yl}-5-cyano-2-[(2-oxopiperidin-1-yl)methyl]nicotinate] |
| 0.022 µM | CCOC(=O)c1cc(C#N)c(N2CCC(C(=O)NS(=O)(=O)Cc3ccccc3)CC2)nc1CCC(C)=O [Example 112, Ethyl 6-{4-[(benzylsulfonyl)carbamoyl]piperidin-1-yl}-5-cyano-2-(3-oxobutyl)nicotinate] |
| 0.057 µM | CCOC(=O)c1cc(C#N)c(N2CCC(C(=O)NS(=O)(=O)Cc3ccccc3)CC2)nc1CSCC [Example 27, Ethyl 6-{4-[(benzylsulfonyl)carbamoyl]piperidin-1-yl}-5-cyano-2-[(ethylthio)methyl]nicotinate] |
| 0.019 µM | CCOC(=O)c1cc(C#N)c(N2CC(C(=O)NS(=O)(=O)Cc3ccccc3)C2)nc1CN1CCCC1=O [Example 90, Ethyl 6-{3-[(benzylsulfonyl)carbamoyl]azetidin-1-yl}-5-cyano-2-[(2-oxopyrrolidin-1-yl)methyl]nicotinate] |
| 0.035 µM | CCOC(=O)c1cc(C#N)c(N2CCC(C(=O)NS(=O)(=O)Cc3ccccc3)CC2)nc1CSCC(=O)O [Example 115, ({[6-{4-[(Benzylsulfonyl)carbamoyl]piperidin-1-yl}-5-cyano-3-(ethoxycarbonyl)pyridin-2-yl]methyl}thio)acetic acid] |

More lines, now with the values behind:

| Compound | IC50 |
| --- | --- |
| CCOC(=O)c1cc(C#N)c(N2CCC(C(=O)NS(=O)(=O)CC3CCC(C)CC3)CC2)nc1CN1CCCCC1=O (stereo not shown) [Example 58, Ethyl 5-cyano-6-[4-({[(4-methylcyclohexyl)methyl]sulfonyl}carbamoyl)piperidin-1-yl]-2-[(2-oxopiperidin-1-yl)methyl]nicotinate] | 0.164 µM |
| CC(C)OC(=O)c1cc(C#N)c(N2CCC(C(=O)NS(=O)(=O)Cc3ccc(Cl)cc3Cl)CC2)nc1CN1CCCC1=O [Example 53, Isopropyl 5-cyano-6-(4-{[(2,4-dichlorobenzyl)sulfonyl]carbamoyl}piperidin-1-yl)-2-[(2-oxopyrrolidin-1-yl)methyl]nicotinate] | 0.032 µM |
| CC(C)OC(=O)c1cc(C#N)c(N2CCC(C(=O)NS(=O)(=O)Cc3ccc(F)cc3)CC2)nc1CN1CCCC1=O [Example 51, Isopropyl 5-cyano-6-(4-{[(4-fluorobenzyl)sulfonyl]carbamoyl}piperidin-1-yl)-2-[(2-oxopyrrolidin-1-yl)methyl]nicotinate] | 0.023 µM |
| CC1CCC(CS(=O)(=O)NC(=O)C2CCN(c3nc(CN4CCCC4=O)c(C(=O)OC(C)C)cc3C#N)CC2)CC1 (stereo not shown) [Example 54, Isopropyl 5-cyano-6-[4-({[(4-methylcyclohexyl)methyl]sulfonyl}carbamoyl)piperidin-1-yl]-2-[(2-oxopyrrolidin-1-yl)methyl]nicotinate] | 0.104 µM |
| CCOC(=O)c1cc(Cl)c(N2CCC(C(=O)NS(=O)(=O)Cc3ccc(F)cc3F)CC2)nc1CN1CCCC1=O [Example 89, Ethyl 5-chloro-6-(4-{[(2,4-difluorobenzyl)sulfonyl]carbamoyl}piperidin-1-yl)-2-[(2-oxopyrrolidin-1-yl)methyl]nicotinate] | 0.033 µM |
| CCOC(=O)c1cc(C#N)c(N2CCC(C(=O)NS(=O)(=O)Cc3ccccc3)CC2)nc1OC(C)=O [Example 2, Ethyl 2-acetoxy-6-{4-[(benzylsulfonyl)carbamoyl]piperidin-1-yl}-5-cyanonicotinate] | 0.024 µM |
| CCOC(=O)c1cc(C#N)c(N2CCC(C(=O)NS(=O)(=O)Cc3ccc(C(F)(F)F)cc3)CC2)nc1CN1CCCCC1=O [Example 59, Ethyl 5-cyano-2-[(2-oxopiperidin-1-yl)methyl]-6-[4-({[4-(trifluoromethyl)benzyl]sulfonyl}carbamoyl)piperidin-1-yl]nicotinate] | 0.029 µM |
| CC(C)OC(=O)c1cc(C#N)c(N2CCC(C(=O)NS(=O)(=O)CC3CCCCC3)CC2)nc1CN1CCCC1=O [Example 82, Isopropyl 5-cyano-6-(4-{[(cyclohexylmethyl)sulfonyl]carbamoyl}piperidin-1-yl)-2-[(2-oxopyrrolidin-1-yl)methyl]nicotinate] | 0.028 µM |
| COC(=O)c1cc(Cl)c(N2CCC(C(=O)NS(=O)(=O)Cc3ccccc3)CC2)nc1CN1CCCCC1=O [Example 129, Methyl 6-{4-[(benzylsulfonyl)carbamoyl]piperidin-1-yl}-5-chloro-2-[(2-oxopiperidin-1-yl)methyl]nicotinate] | 1.58 µM |
| CC(C)OC(=O)c1cc(C#N)c(N2CCC(C(=O)NS(=O)(=O)Cc3ccc(Cl)cc3)CC2)nc1CN1CCCC1=O [Example 48, Isopropyl 6-(4-{[(4-chlorobenzyl)sulfonyl]carbamoyl}piperidin-1-yl)-5-cyano-2-[(2-oxopyrrolidin-1-yl)methyl]nicotinate] | 0.012 µM |
| CCOC(=O)c1cc(C#N)c(N2CCC(C(=O)NS(=O)(=O)Cc3ccc(Cl)cc3F)CC2)nc1CN1CCCC1=O [Example 44, Ethyl 6-(4-{[(4-chloro-2-fluorobenzyl)sulfonyl]carbamoyl}piperidin-1-yl)-5-cyano-2-[(2-oxopyrrolidin-1-yl)methyl]nicotinate] | 0.01 µM |
| CC(C)OC(=O)c1cc(C#N)c(N2CCC(C(=O)NS(=O)(=O)CC3CCCC3)CC2)nc1CN1CCCC1=O [Example 47, Isopropyl 5-cyano-6-(4-{[(cyclopentylmethyl)sulfonyl]carbamoyl}piperidin-1-yl)-2-[(2-oxopyrrolidin-1-yl)methyl]nicotinate] | 0.065 µM |
| CCOC(=O)c1cc(C#N)c(N2CCC(C(=O)NS(=O)(=O)CC3CCOCC3)CC2)nc1CN1CCCC1=O [Example 72, Ethyl 5-cyano-2-[(2-oxopyrrolidin-1-yl)methyl]-6-(4-{[(tetrahydro-2H-pyran-4-ylmethyl)sulfonyl]carbamoyl}piperidin-1-yl)nicotinate] | 0.725 µM |
| CCSC(=O)c1cc(C#N)c(N2CCC(C(=O)NS(=O)(=O)CC3CCCC3)CC2)nc1CN1CCCC1=O [Example 97, S-Ethyl 5-cyano-6-(4-{[(cyclopentylmethyl)sulfonyl]carbamoyl}piperidin-1-yl)-2-[(2-oxopyrrolidin-1-yl)methyl]pyridine-3-carbothioate] | 1.22 µM |
| CCOC(=O)c1cc(C#N)c(N2CCC(C(=O)NS(=O)(=O)Cc3ccccc3)CC2)nc1COC(C)=O [Example 5, Ethyl 2-(acetoxymethyl)-6-{4-[(benzylsulfonyl)carbamoyl]piperidin-1-yl}-5-cyanonicotinate] | 0.044 µM |
| CCOC(=O)CSc1nc(N2CCC(C(=O)NS(=O)(=O)CC3CCCC3)CC2)c(C#N)cc1C(=O)OCC [Example 110, Ethyl 5-cyano-6-(4-{[(cyclopentylmethyl)sulfonyl]carbamoyl}piperidin-1-yl)-2-[(2-ethoxy-2-oxoethyl)thio]nicotinate] | 0.053 µM |
| CC(C)OC(=O)c1cc(C#N)c(N2CCC(C(=O)NS(=O)(=O)Cc3ccc(F)cc3F)CC2)nc1CN1CCCC1=O [Example 46, Isopropyl 5-cyano-6-(4-{[(2,4-difluorobenzyl)sulfonyl]carbamoyl}piperidin-1-yl)-2-[(2-oxopyrrolidin-1-yl)methyl]nicotinate] | 0.021 µM |

Same assay, conditions: functional inhibition of 2-Me-S-ADP induced P2Y12 signalling; membranes from P2Y12 transfected CHO-cells; EC80 concentration of agonist; read-out: IC50

| IC50 | Compound |
| --- | --- |
| 0.13 µM | CCOC(=O)c1cc(C#N)c(N2CCC(C(=O)NS(=O)(=O)Cc3ccccc3)CC2)nc1CS(C)(=O)=O [Example 12, Ethyl 6-{4-[(benzylsulfonyl)carbamoyl]piperidin-1-yl}-5-cyano-2-[(methylsulfonyl)methyl]nicotinate] |
